Results from patent US12728119B2, “Pharmaceutical composition for preventing or treating cancer comprising 3-ketoacyl CoA thiolase inhibitor and carnitine acylcarnitine carrier inhibitor” (NATIONAL CANCER CENTER, priority 2020, dated 2026).

How the values were obtained:
Format in all cases: cell-based
A375 melanoma cell line = assay: SRB analysis 3; conditions: Gemcitabine 5 μM, 48 hours
Procedure: (§1) Through SRB analysis (n=3), the effect of triple combination treatment of a CAC inhibitor (KN510: omeprazole), ACAA inhibitor (KN713: trimetazidine) and other anticancer drug on cell growth in the cancer cells was analyzed. (see Table 11).
(§2) The SRB assay was performed as follows: each cell line (100 μl) was seeded into 96-well microtiter plates at densities ranging from 5,000 to 40,000 cells/well depending on the doubling time of each cell line. After 24 hours, drug (100 μl per well) was added to each well and the culture was incubated at 37° C. for 48 hours. Cells were then fixed in 50% TCA (50 μl per well) and plates were incubated at 4° C. for a minimum of 1 hour or a maximum of 3 hours. After that, the liquid was removed from the plate, then rinsed 5 times with water and dried for approximately 12-24 hours at room temperature (RT). After the fixed cells were stained with 0.4% SRB (100 μl per well) for 10 minutes at room temperature, the plates were washed 3 times with 1% glacial acetic acid and dried at room temperature for about 12-24 hours. SRB staining was dissolved in 10 mM Trizma base and absorbance was read at 515 nm. The effect of the drug was expressed as GI50 (50% growth inhibition), TGI (total growth inhibition) or LC50 (lethal concentration). GI50 is the maximum concentration at the moment of 50% inhibition of cell proliferation and IC50 is the concentration of the drug that inhibits the enzyme activity in vitro by 50% in this study.

[1] = test system: A549 non-small cell lung cancer (NSCLC) cell line; assay: SRB analysis 3; conditions: Gemcitabine 2.5 μM, 48 hours
Procedure: as §1, §2

[2] = test system: ACHN renal cancer cell line; assay: SRB analysis 3; conditions: Gemcitabine 2.5 μM, 48 hours
Procedure: as §1, §2

[3] = test system: AGS gastric cancer cell line; assay: SRB analysis 3; conditions: Gemcitabine 2.5 μM, 48 hours
Procedure: as §1, §2

[4] = test system: AsPC-1 pancreatic cancer (PDAC) cell line; assay: SRB analysis 3; conditions: Gemcitabine 2.5 μM, 48 hours
Procedure: as §1, §2

[5] = test system: COLO-205 colon cancer cell line; assay: SRB analysis 3; conditions: Gemcitabine 2.5 μM, 48 hours
Procedure: as §1, §2

[6] = test system: Caki-1 renal cancer cell line; assay: SRB analysis 3; conditions: Gemcitabine 2.5 μM, 48 hours
Procedure: as §1, §2

[7] = test system: DU145 prostate cancer cell line; assay: SRB analysis 3; conditions: Gemcitabine 5 μM, 48 hours
Procedure: as §1, §2

[8] = test system: H1975 non-small cell lung cancer (NSCLC) cell line; assay: SRB analysis 3; conditions: Gemcitabine 2.5 μM, 48 hours
Procedure: as §1, §2

[9] = test system: HCT-116 colon cancer cell line; assay: SRB analysis 3; conditions: Gemcitabine 2.5 μM, 48 hours
Procedure: as §1, §2

[10] = test system: Huh-7 liver cancer cell line; assay: SRB analysis 3; conditions: Gemcitabine 2.5 μM, 48 hours
Procedure: as §1, §2

[11] = test system: MCF7 breast cancer cell line; assay: SRB analysis 3; conditions: Gemcitabine 2.5 μM, 48 hours
Procedure: as §1, §2

[12] = test system: MDA-MB-231 breast cancer cell line; assay: SRB analysis 3; conditions: Gemcitabine 2.5 μM, 48 hours
Procedure: as §1, §2

[13] = test system: MIA PaCa-2 pancreatic cancer (PDAC) cell line; assay: SRB analysis 3; conditions: Gemcitabine 2.5 μM, 48 hours
Procedure: as §1, §2

[14] = test system: MKN45 gastric cancer cell line; assay: SRB analysis 3; conditions: MKN-45; Gemcitabine 2.5 μM; 48 hours
Procedure: as §1, §2

[15] = test system: OVCAR-8 ovarian cancer cell line; assay: SRB analysis 3; conditions: Gemcitabine 2.5 μM, 48 hours
Procedure: as §1, §2

[16] = test system: PC-3 prostate cancer cell line; assay: SRB analysis 3; conditions: Gemcitabine 5 μM, 48 hours
Procedure: as §1, §2

[17] = test system: SK-OV-3 ovarian cancer cell line; assay: SRB analysis 3; conditions: Gemcitabine 2.5 μM, 48 hours
Procedure: as §1, §2

[18] = test system: SK-hep-1 liver cancer cell line; assay: SRB analysis 3; conditions: Gemcitabine 2.5 μM, 48 hours
Procedure: as §1, §2

[19] = test system: UACC62 melanoma cell line; assay: SRB analysis 3; conditions: Gemcitabine 5 μM, 48 hours
Procedure: as §1, §2

[20] = test system: T87G glioblastoma (GBM) cell line; assay: SRB analysis 3; conditions: Gemcitabine 5 μM, 48 hours
Procedure: as §2, with “Through SRB analysis (n=3), the effect of triple combination treatment of a CAC inhibitor ([…] inhibitor (KN713: trimetazidine) and other anticancer drug on cell growth in the cancer cells was analyzed. (see Table 11). The” for “The”, “nm.” for “nm. The effect of the drug was expressed as GI50 (50% growth inhibition), TGI (total growth inhibition) or LC50 (lethal concentration). GI50 is the maximum concentration at the moment of 50% inhibition of cell proliferation and IC50 is the concentration of the drug that inhibits the enzyme activity in vitro by 50% in this study.”

[21] = test system: U87MG glioblastoma (GBM) cell line; assay: SRB analysis 3; conditions: Gemcitabine 5 μM, 48 hours
Procedure: as §2, with “Through SRB analysis (n=3), the effect of triple combination treatment of a CAC inhibitor ([…] inhibitor (KN713: trimetazidine) and other anticancer drug on cell growth in the cancer cells was analyzed. (see Table 11). The” for “The”, “nm.” for “nm. The effect of the drug was expressed as GI50 (50% growth inhibition), TGI (total growth inhibition) or LC50 (lethal concentration). GI50 is the maximum concentration at the moment of 50% inhibition of cell proliferation and IC50 is the concentration of the drug that inhibits the enzyme activity in vitro by 50% in this study.”

cancer cells = assay: SRB analysis 3, triple combination, summary over cancer panels
Procedure: as §1, §2

For `Nc1ccn([C@@H]2O[C@H](CO)[C@@H](O)C2(F)F)c(=O)n1` [Gemcitabine], the “cell growth (Control = 100)” value (A375 melanoma cell line) was 25.12, the “cell growth (Control = 100)” value [1] was 19.65 and the “cell growth (Control = 100)” value [2] was −47.9775. For the same compound, the “cell growth (Control = 100)” value [3] was 15.95, the “cell growth (Control = 100)” value [4] was 20.83 and the “cell growth (Control = 100)” value [5] was 6.029. The “cell growth (Control = 100)” value [6] was 28.94, the “cell growth (Control = 100)” value [7] was 45.33 and the “cell growth (Control = 100)” value [8] was 16.14. The “cell growth (Control = 100)” value [9] was 3.788, the “cell growth (Control = 100)” value [10] was 33.13 and the “cell growth (Control = 100)” value [11] was 12.31. The “cell growth (Control = 100)” value [12] was 65.05, the “cell growth (Control = 100)” value [13] was 25.9 and the “cell growth (Control = 100)” value [14] was 36.14. The “cell growth (Control = 100)” value [15] was 21.24, the “cell growth (Control = 100)” value [16] was 48.0 and the “cell growth (Control = 100)” value [17] was 24.21. The “cell growth (Control = 100)” value [18] was 22.18, the “cell growth (Control = 100)” value [19] was 31.60 and the “cell growth (Control = 100)” value [20] was 53.69. For the same compound, the “cell growth (Control = 100)” value [21] was 3.67, the “Positive/Negative (triple combination of KN510, KN713 and the listed anticancer drug)” value (“Positive/Negative” below) (cancer cells; Breast Cancer, BT-549, MDA MB 231) was “negative” and the “Positive/Negative” value (cancer cells; Colon Cancer, HT-29, COLO-205) was “negative”. The “Positive/Negative” value (cancer cells; GBM, U87MG, T87G) was “negative”, the “Positive/Negative” value (cancer cells; Liver Cancer, SNU-449, Huh-7) was “negative” and the “Positive/Negative” value (cancer cells; NSCLC, A549, H522) was “negative”. For the same compound, the “Positive/Negative” value (cancer cells; Ovarian Cancer, SK-OV-3, OVCAR-3) was “negative”, the “Positive/Negative” value (cancer cells; PDAC, MIA PaCa-2, PANC-1) was “Positive” and the “Positive/Negative” value (cancer cells; Prostate Cancer, PC-3, DU-145) was “Positive”. The “Positive/Negative” value (cancer cells; Renal cell carcinoma, ACHN, CAKI-1) was “negative”, the “Positive/Negative” value (cancer cells; Stomach Cancer, MKN-28, AGS) was “negative” and the “Positive/Negative” value (cancer cells; melanoma, UACC62, A375) was “Positive”.
